In PubChem BioAssay (NCI):
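Assay format: 96-well plates, 48-hour exposure. TGI: total growth inhibition.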

Key:
Assay in all cases: DTP human tumour cell line panel, 48 h
MALME-3M melanoma = tested on: MALME-3M melanoma
OVCAR-5 ovarian = tested on: OVCAR-5 ovarian
LOX IMVI melanoma = tested on: LOX IMVI melanoma
DU-145 prostate = tested on: DU-145 prostate
K-562 leukemia = tested on: K-562 leukemia
UACC-257 melanoma = tested on: UACC-257 melanoma
NCI-H226 lung = tested on: NCI-H226 lung
HOP-62 NSCLC = tested on: HOP-62 NSCLC
786-0 renal = tested on: 786-0 renal
RXF 393 renal = tested on: RXF 393 renal
CCRF-CEM leukemia = tested on: CCRF-CEM leukemia
HT29 colon = tested on: HT29 colon
OVCAR-4 ovarian = tested on: OVCAR-4 ovarian
KM12 colon = tested on: KM12 colon
HCT-116 colon = tested on: HCT-116 colon
SNB-75 CNS = tested on: SNB-75 CNS
T-47D breast = tested on: T-47D breast
SK-OV-3 ovarian = tested on: SK-OV-3 ovarian
SK-MEL-2 melanoma = tested on: SK-MEL-2 melanoma
IGROV1 ovarian = tested on: IGROV1 ovarian
SF-295 CNS = tested on: SF-295 CNS
SW-620 colon = tested on: SW-620 colon
M14 melanoma = tested on: M14 melanoma
UACC-62 melanoma = tested on: UACC-62 melanoma
MOLT-4 leukemia = tested on: MOLT-4 leukemia
MDA-MB-231 breast = tested on: MDA-MB-231 breast
UO-31 renal = tested on: UO-31 renal
MCF7 breast = tested on: MCF7 breast
COLO 205 colon = tested on: COLO 205 colon
MDA-N = tested on: MDA-N
U251 CNS = tested on: U251 CNS
SF-539 CNS = tested on: SF-539 CNS
TK-10 renal = tested on: TK-10 renal
NCI/ADR-RES ovarian = tested on: NCI/ADR-RES ovarian
EKVX NSCLC = tested on: EKVX NSCLC
SK-MEL-5 melanoma = tested on: SK-MEL-5 melanoma
SK-MEL-28 melanoma = tested on: SK-MEL-28 melanoma
PC-3 prostate = tested on: PC-3 prostate
SN12C renal = tested on: SN12C renal
OVCAR-8 ovarian = tested on: OVCAR-8 ovarian
A549 NSCLC = tested on: A549 NSCLC
MDA-MB-435 = tested on: MDA-MB-435
RPMI-8226 leukemia = tested on: RPMI-8226 leukemia
CAKI-1 renal = tested on: CAKI-1 renal
ACHN renal = tested on: ACHN renal
OVCAR-3 ovarian = tested on: OVCAR-3 ovarian
SNB-19 CNS = tested on: SNB-19 CNS
HOP-92 NSCLC = tested on: HOP-92 NSCLC
HCT-15 colon = tested on: HCT-15 colon
HCC-2998 colon = tested on: HCC-2998 colon
NCI-H23 lung = tested on: NCI-H23 lung
NCI-H522 lung = tested on: NCI-H522 lung
HL-60(TB) leukemia = tested on: HL-60(TB) leukemia

Measured: TGI

CCN(CC)CCCNc1nc(=O)[nH]c(C)c1C(=O)Nc1ccc2c(c1)c1ccccc1n2CC
> 100 µM: MALME-3M melanoma | OVCAR-5 ovarian | LOX IMVI melanoma | DU-145 prostate | K-562 leukemia | UACC-257 melanoma | NCI-H226 lung | HOP-62 NSCLC | 786-0 renal | RXF 393 renal | CCRF-CEM leukemia | HT29 colon | OVCAR-4 ovarian | KM12 colon | HCT-116 colon | SNB-75 CNS | T-47D breast | SK-OV-3 ovarian | SK-MEL-2 melanoma | IGROV1 ovarian | SF-295 CNS | SW-620 colon | M14 melanoma | UACC-62 melanoma | MOLT-4 leukemia | MDA-MB-231 breast | UO-31 renal | MCF7 breast | COLO 205 colon | MDA-N | U251 CNS | SF-539 CNS | TK-10 renal | NCI/ADR-RES ovarian | EKVX NSCLC | SK-MEL-5 melanoma | SK-MEL-28 melanoma | PC-3 prostate | SN12C renal | OVCAR-8 ovarian | A549 NSCLC | MDA-MB-435 | RPMI-8226 leukemia | CAKI-1 renal | ACHN renal | OVCAR-3 ovarian | SNB-19 CNS | HOP-92 NSCLC | HCT-15 colon | HCC-2998 colon | NCI-H23 lung | NCI-H522 lung | HL-60(TB) leukemia
